Results on 13 compounds are retold here after ChEMBL document CHEMBL3046497, “Synthesis and antitubercular activity of novel pyrazolequinazolinone hybrid analogs” (2013).

Converted amounts (≈) assume the structure as drawn.

Holding throughout (type): functional
Test [1] has as its system Mycobacterium tuberculosis. Put plainly: Antitubercular activity against Mycobacterium tuberculosis H37Rv assessed as growth inhibition by secondary screen assay.
Test [2] deals with Mycobacterium tuberculosis. Put plainly: Antitubercular activity against Mycobacterium tuberculosis H37Rv assessed as growth inhibition at <6.25 ug/ml by primary screen assay.
The test system of test [3] is Mycobacterium tuberculosis. Put plainly: Antitubercular activity against Mycobacterium tuberculosis H37Rv assessed as growth inhibition by primary screen assay.
In test [4] the test system is Mycobacterium tuberculosis. Put plainly: Antitubercular activity against Mycobacterium tuberculosis H37Rv assessed as growth inhibition at >6.25 ug/ml by primary screen assay.

In the case of `Cc1ccc(-n2cc(/C=N/n3c(-c4cccc([N+](=O)[O-])c4)nc4ccccc4c3=O)c(-c3ccncc3)n2)cc1`, the MIC in test [1] was < 3.12 µg/mL; in test [3], < 6.25 µg/mL. In addition, in test [2], the “inhibition (INH)” value is given as 92%.

Turning to `COc1cccc(-c2nc3ccccc3c(=O)n2/N=C/c2cn(-c3ccc(C)cc3)nc2-c2ccncc2)c1`, in test [4], the “inhibition (INH)” value was 64%. The minimum inhibitory concentration (MIC) in test [3] is > 6.25 µg/mL.

Take `Cc1ccc(-c2nc3ccccc3c(=O)n2/N=C/c2cn(-c3ccc(C)cc3)nc2-c2ccncc2)cc1`: in test [4], the “inhibition (INH)” value came to 67%. In addition, the MIC in test [3] was > 6.25 µg/mL.

As to `Cc1ccc(-n2cc(/C=N/n3c(-c4ccc(Cl)cc4)nc4ccccc4c3=O)c(-c3ccncc3)n2)cc1`, the MIC in test [1] was < 3.12 µg/mL; in test [3], < 6.25 µg/mL. Also, the “inhibition (INH)” value in test [2] is 90%.

For `Cc1ccc(-n2cc(/C=N/n3c(-c4cccc(Cl)c4)nc4ccccc4c3=O)c(-c3ccncc3)n2)cc1`, the “inhibition (INH)” value in test [4] was 68%. In addition, in test [3], the MIC is > 6.25 µg/mL.

Regarding `Cc1ccc(-n2cc(/C=N/n3c(-c4ccccc4C)nc4ccccc4c3=O)c(-c3ccncc3)n2)cc1`, the MIC is < 3.12 µg/mL in test [1] and < 6.25 µg/mL in test [3]. Also, in test [2], the “inhibition (INH)” value is reported as 94%.

Turning to `Cc1ccc(-n2cc(/C=N/n3c(-c4ccccc4[N+](=O)[O-])nc4ccccc4c3=O)c(-c3ccncc3)n2)cc1`, the “inhibition (INH)” value in test [4] was found to be 73%. For the same compound, in test [3], the MIC was > 6.25 µg/mL.

With `Cc1ccc(-n2cc(/C=N/n3c(-c4ccc([N+](=O)[O-])cc4)nc4ccccc4c3=O)c(-c3ccncc3)n2)cc1`, in test [4], the “inhibition (INH)” value was determined as 67%. Moreover, the MIC in test [3] is > 6.25 µg/mL.

For the compound `Cc1ccc(-n2cc(/C=N/n3c(-c4cccc(C)c4)nc4ccccc4c3=O)c(-c3ccncc3)n2)cc1`, the “inhibition (INH)” value in test [4] came to 70%. The MIC in test [3] is > 6.25 µg/mL.

Consider `NNC(=O)c1ccncc1` [ISONIAZID], for which the MIC is 0.125 µg/mL (≈ 0.911 µM) in test [1] and < 6.25 µg/mL in test [3].

With `Cc1ccc(-n2cc(/C=N/n3c(-c4ccccc4Cl)nc4ccccc4c3=O)c(-c3ccncc3)n2)cc1`, the MIC was < 3.12 µg/mL in test [1] and < 6.25 µg/mL in test [3]. The “inhibition (INH)” value in test [2] is recorded as 96%.

Consider `COc1ccccc1-c1nc2ccccc2c(=O)n1/N=C/c1cn(-c2ccc(C)cc2)nc1-c1ccncc1`, for which the minimum inhibitory concentration (MIC) was < 3.12 µg/mL in test [1] and < 6.25 µg/mL in test [3]. Besides, the “inhibition (INH)” value in test [2] turned out to be 93%.

Regarding `COc1ccc(-c2nc3ccccc3c(=O)n2/N=C/c2cn(-c3ccc(C)cc3)nc2-c2ccncc2)cc1`, the “inhibition (INH)” value in test [4] worked out at 59%. Also, the MIC in test [3] is > 6.25 µg/mL.

For orientation: MIC means the smallest concentration in the dilution series that meets the test's criterion for growth inhibition.
